Measurements published in patent US12029713B2, “Compositions and methods for the treatment of brain injury” (THE CHILDREN'S HOSPITAL OF PHILADELPHIA, priority 2013, dated 2024).

Legend:
[1] = tested on: fluid percussion injury mice; assay: Conditioned fear response (CFR) after fluid percussion injury, GTA oral gavage; type: in vivo, mouse; conditions: 5 mg/kg oral gavage for 5 days, CFR on day 7 (FIG. 5)
Protocol: A fluid percussion injury assay was performed. Briefly, a craniotomy was performed on anesthetized mice using a 3 mm trephine and a Luer-Hoc needle hub attached to the skull and capped. The following day, a fluid percussion injury device was employed to deliver a pulse of saline through the hub at a pressure between 1.4-2.14 atm, producing a mild to moderate percussion injury. Sham animals received all anesthesia and surgical procedures except for the fluid pulse.
Mice were allowed to recover for one day. Mice were then treated with 5 mg/kg of glyceryl triacetate (GTA) via oral gavage for 5 days. The conditioned fear response (CFR) assay was performed on day 7.

[2] = within one hour of administration; cited from earlier work

CC(=O)OCC(COC(C)=O)OC(C)=O [GTA, glyceryl triacetate]
fear response (CFR) compared to mice receiving the brain injury without treatment [1]: statistically superior | increase of acetate levels in the brain [2]: over 15 fold
